Twelve compounds from US20260152487A1 (Sitryx Therapeutics Limited, priority 2021, published 2026) can be followed below.

The target of one test is T1, recombinant human PKLR (Homo sapiens, UniProt P30613).
T1 construct: His (N); purchased R&D Systems
Description: Human PKLR activation assay (Kinase-Glo Plus luminescent detection of generated ATP). The format is biochemical. The following applies: for EC50: activation of recombinant human PKLR, 4-parameter logistic fit, read-out: hPKLR EC50; for Emax: percentage activation normalised to DMSO vehicle (LOW) and 5 μM TEPP-46 (HIGH) controls, read-out: hPKLR Emax (%). (In general: Kinase-Glo reads ATP consumption through a luciferase reaction.)

The target of another test is T2, recombinant human PKM2 (Homo sapiens, UniProt P14618).
T2 construct: His (N); purchased R&D Systems
T2 sequence (P14618 2-531 limits assumed): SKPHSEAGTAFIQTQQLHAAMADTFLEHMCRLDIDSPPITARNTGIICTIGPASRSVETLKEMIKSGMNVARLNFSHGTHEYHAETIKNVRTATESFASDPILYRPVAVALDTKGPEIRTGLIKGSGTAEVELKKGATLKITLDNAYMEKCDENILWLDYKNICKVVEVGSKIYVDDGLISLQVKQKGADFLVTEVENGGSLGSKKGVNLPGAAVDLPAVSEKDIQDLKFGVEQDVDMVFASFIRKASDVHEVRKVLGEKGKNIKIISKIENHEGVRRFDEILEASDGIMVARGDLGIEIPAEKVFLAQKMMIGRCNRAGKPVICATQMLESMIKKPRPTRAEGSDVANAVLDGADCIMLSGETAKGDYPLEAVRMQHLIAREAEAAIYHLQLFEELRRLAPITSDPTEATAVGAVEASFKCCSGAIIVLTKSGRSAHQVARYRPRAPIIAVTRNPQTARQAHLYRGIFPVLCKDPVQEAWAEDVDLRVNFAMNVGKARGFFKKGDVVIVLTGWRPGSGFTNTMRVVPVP
Description: Human PKM2 activation assay (Kinase-Glo Plus luminescent detection of generated ATP). The format is biochemical. The note with it: for Emax: percentage activation normalised to DMSO vehicle (LOW) and 5 μM TEPP-46 (HIGH), read-out: hPKM2 Emax; for EC50: recombinant human PKM2 activation, 4-parameter logistic fit, read-out: hPKM2 EC50. An outline of the steps: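 N-His-tagged recombinant hPKM2 ([…]) with PEP and ADP was incubated with compound for 60 min at 26 °C, shaking, in 50 mM imidazole, 50 mM KCl, 7 mM MgCl2, 0.01% Tween20, 0.05% BSA, pH 7.2. ATP produced was read by Kinase-Glo Plus luminescence after 15 min.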

Another test concerns A549 cells. Description: A549 cell proliferation in low-serine medium (CellTiter-Glo 2.0 viable cell number). Type of test: cell-based. The note with it: Homo sapiens, 72 h, 3 days, Assay Medium with 20 μM L-serine. The procedure, abridged: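 A549 cells (600/well) were plated overnight and then exposed for 3 days at 37 °C to compound in Basal Medium Eagle with 3% dialysed FBS, 2 mM glutamine and 20 μM L-serine. Viable cell number was read by CellTiter-Glo luminescence and normalized to time-zero and DMSO controls. IC50 came from a 4-parameter logistic fit.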
On the technique in general: Cellular ATP, detected with luciferase, serves as a proxy for viable cell number.

T1 sequence (P30613 whole entry): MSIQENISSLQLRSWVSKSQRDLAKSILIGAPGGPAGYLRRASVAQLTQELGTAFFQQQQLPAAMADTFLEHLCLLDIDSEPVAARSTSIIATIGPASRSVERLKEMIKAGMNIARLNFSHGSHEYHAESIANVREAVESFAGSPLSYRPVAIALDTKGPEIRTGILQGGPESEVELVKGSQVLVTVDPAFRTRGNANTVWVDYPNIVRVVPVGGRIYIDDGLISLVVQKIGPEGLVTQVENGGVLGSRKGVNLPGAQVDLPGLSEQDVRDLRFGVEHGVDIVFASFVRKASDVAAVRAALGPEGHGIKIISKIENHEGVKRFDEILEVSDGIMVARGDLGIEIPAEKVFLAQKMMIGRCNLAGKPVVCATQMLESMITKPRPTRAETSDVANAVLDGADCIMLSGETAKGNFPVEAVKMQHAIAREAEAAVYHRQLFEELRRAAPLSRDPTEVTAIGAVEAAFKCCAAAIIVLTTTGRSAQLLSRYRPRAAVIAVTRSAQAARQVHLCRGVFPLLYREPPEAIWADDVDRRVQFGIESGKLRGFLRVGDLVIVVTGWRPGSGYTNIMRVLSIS

Regarding `COc1ccc(S(=O)(=O)c2ccc3c(=O)n(Cc4ccn(C5CC5)n4)ncc3c2)cc1` [Example 1, 2-((1-cyclopropyl-1H-pyrazol-3-yl)methyl)-6-((4-methoxyphenyl)sulfonyl)phthalazin-1(2H)-one], the EC50 on recombinant human PKLR turned out to be 4.7 nM; at recombinant human PKM2, 27.6 nM. The results for the Emax on recombinant human PKLR and at recombinant human PKM2 were 159% and 129%, respectively. Further, the IC50 in the test on A549 cells came to 1.2 nM.

As to `Nc1cccc(Cn2ncc3cc(S(=O)(=O)c4ccccc4)ccc3c2=O)n1` [Example 38, 2-((6-aminopyridin-2-yl)methyl)-6-(phenylsulfonyl)phthalazin-1(2H)-one], on recombinant human PKLR, the EC50 came to 5.3 nM and the Emax worked out at 149%. Besides, on recombinant human PKM2, the maximal response (Emax) is 115% and the EC50 is 40.1 nM. This compound yielded a half-maximal inhibitory concentration (IC50) with A549 cells of 1.5 nM.

For `COc1ccc(Cn2ncc3cc(S(=O)(=O)c4ccccc4)ccc3c2=O)cn1` [Example 41, 2-((6-methoxypyridin-3-yl)methyl)-6-(phenylsulfonyl)phthalazin-1(2H)-one], on recombinant human PKLR, the EC50 stood at 15.8 nM and the Emax is 109%. At recombinant human PKM2, the Emax was 111% and the EC50 was 42.1 nM. Also, the IC50 in the test with A549 cells stood at 2 nM.

`COc1ccc(S(=O)(=O)c2ccc3c(=O)n(Cc4cc(C)[nH]n4)ncc3c2)cc1` [Example 54, 6-((4-methoxyphenyl)sulfonyl)-2-((5-methyl-1H-pyrazol-3-yl)methyl)phthalazin-1(2H)-one]: on recombinant human PKLR, the EC50 came out at 3.1 nM and the maximal response (Emax) worked out at 142%. Besides, at recombinant human PKM2, the Emax stood at 112% and the EC50 stood at 45.5 nM. In addition, in the test with A549 cells, the IC50 was 2.2 nM.

As to `COc1ccc(S(=O)(=O)c2ccc3c(=O)n(Cc4cccnc4O)ncc3c2)cc1` [Example 56, 2-((2-hydroxypyridin-3-yl)methyl)-6-((4-methoxyphenyl)sulfonyl)phthalazin-1(2H)-one], at recombinant human PKLR, the concentration giving a half-maximal response (EC50) was determined as 10.1 nM and the Emax is 131%. In addition, at recombinant human PKM2, the Emax amounted to 98% and the EC50 stood at 51.9 nM. In the test on A549 cells, this compound registered an IC50 of 1.7 nM.

For `Cn1ccc(Cn2ncc3cc(S(=O)(=O)c4ccccc4)ccc3c2=O)n1` [Example 60, 2-((1-methyl-1H-pyrazol-3-yl)methyl)-6-(phenylsulfonyl)phthalazin-1(2H)-one], the EC50 on recombinant human PKLR came out at 34.1 nM; at recombinant human PKM2, 100 nM. The results for the maximal effect (Emax) on recombinant human PKLR and on recombinant human PKM2 were 122% and 110%, respectively. In addition, inhibition with A549 cells was half-maximal at 3.6 nM (IC50).

Consider `O=c1c2ccc(S(=O)(=O)c3ccccc3)cc2cnn1Cc1cc[nH]n1` [Example 68, 2-((1H-pyrazol-3-yl)methyl)-6-(phenylsulfonyl)phthalazin-1(2H)-one], for which the EC50 on recombinant human PKLR turned out to be 17.1 nM; on recombinant human PKM2, 70.8 nM. For the same compound, the Emax is 134% on recombinant human PKLR and 117% on recombinant human PKM2. Further, in the test on A549 cells, the IC50 was 2.2 nM.

As for `O=c1c2ccc(S(=O)(=O)c3ccccc3)cc2cnn1Cc1ccn(C2CC2)n1` [Example 73, 2-((1-cyclopropyl-1H-pyrazol-3-yl)methyl)-6-(phenylsulfonyl)phthalazin-1(2H)-one], on recombinant human PKLR, the EC50 worked out at 14 nM and the Emax worked out at 117%. Further, at recombinant human PKM2, the Emax worked out at 99.9% and the EC50 stood at 30.2 nM. Besides, the IC50 in the test with A549 cells came out at 3.5 nM.

In the case of `Cc1cccc(Cn2ncc3cc(S(=O)(=O)c4ccccc4)ccc3c2=O)n1` [Example 75, 2-((6-methylpyridin-2-yl)methyl)-6-(phenylsulfonyl)phthalazin-1(2H)-one], the EC50 is 11.5 nM at recombinant human PKLR and 47.7 nM at recombinant human PKM2. In addition, the figures for the Emax on recombinant human PKLR and on recombinant human PKM2 were 137% and 108%, respectively. The same compound registered an IC50 with A549 cells of 2.2 nM.

`Cc1cn(C)nc1Cn1ncc2cc(S(=O)(=O)c3ccccc3)ccc2c1=O` [Example 89, 2-((1,4-dimethyl-1H-pyrazol-3-yl)methyl)-6-(phenylsulfonyl)phthalazin-1(2H)-one]: the EC50 at recombinant human PKLR amounted to 9.6 nM; on recombinant human PKM2 it was 50.8 nM. The values for the Emax at recombinant human PKLR and on recombinant human PKM2 were 135% and 101%, respectively. This compound returned an IC50 in the test with A549 cells of 1.7 nM.

As for `Cc1cc(Cn2ncc3cc(S(=O)(=O)c4ccccc4)ccc3c2=O)nn1C` [Example 90, 2-((1,5-dimethyl-1H-pyrazol-3-yl)methyl)-6-(phenylsulfonyl)phthalazin-1(2H)-one], at recombinant human PKLR, the concentration giving a half-maximal response (EC50) is 10.1 nM and the Emax came out at 139%. Besides, at recombinant human PKM2, the Emax worked out at 106% and the EC50 came out at 55.7 nM. In the test on A549 cells, this compound gave an IC50 of 3 nM.

With `Cc1cc(Cn2ncc3cc(S(=O)(=O)c4ccccc4)ccc3c2=O)n[nH]1` [Example 96, 2-((5-methyl-1H-pyrazol-3-yl)methyl)-6-(phenylsulfonyl)phthalazin-1(2H)-one], at recombinant human PKLR, the EC50 was 9.3 nM and the Emax came to 128%. Also, on recombinant human PKM2, the Emax stood at 116% and the EC50 came to 62.6 nM. Besides, the IC50 with A549 cells was determined as 3.3 nM.

The EC50 is the midpoint of the concentration-response curve. The term Emax denotes the size of the effect at its maximum, as opposed to the concentration needed. By IC50 is commonly meant the point on the concentration scale where inhibition reaches its midpoint. The low end stands for inhibition by little substance, the high end for a need for much substance.
